The text below walks through data of US20170304251A1, “AVOCADO-DERIVED LIPIDS FOR USE IN TREATING LEUKEMIA” (priority 2014, published 2017).

Like-named read-outs stand apart in the source and are kept apart here.

Common to all, as to assay type: cell-based
The test system of series [1] is TEX cells. As to the kind of experiment: Propidium iodide staining and flow cytometry (Example 6). The conditions noted are these: increasing concentrations up to 10 micromolar. How it is done:
Avocadyne, avocadene and avocatin B were tested for their toxicity to leukemic cells using TEX cells. The TEX cells were treated with increasing concentrations of each lipid (up to 10 micromolar) and subsequently stained with propidium iodide (PI), which stains only dead cells. The percent viability was measured using flow cytometry gating on PI positive and PI negative cells.
(Flow cytometry measures light scatter and fluorescence of single cells or particles in a stream.)

A further series has as its system TEX leukemia cells. As to the kind of experiment: MTS cell growth and viability assay, 72 hours. The protocol: Leukemia (OCI-AML2) cells were cultured in Iscove's Modified Dulbecco's Medium (IMDM) (Life Technologies; Grand Island, N.Y.) supplemented with 10% Fetal Bovine Serum (FBS; Seradigm; Providence, Utah) and antibiotics ([…]; Sigma Chemical; St. Louis, Mo.). TEX leukemia cells were cultured in 15% FBS, antibiotics and 2 mM L-glutamine (Sigma Chemical), 20 ng/ml stem cell factor and 2 ng/ml IL-3 (Peprotech; Hamburg Germany). Primary human samples (fresh and frozen) were obtained from the peripheral blood of AML patients who had at least 80% malignant cells among the mononuclear cells and cultured at 37° C. in IMDM, 20% FBS and antibiotics (see table 1a and 1 b for clinical parameters). […] Cell growth and viability was measured using the 3-(4,5-dimethylthiazol-2-yl)-5-(3-carboxymethoxyphenyl)-2-(4-sulfophenyl)-2H-tetrazolium inner salt (MTS) reduction assay (Promega; Madison, Wis.) according to the manufacturer's protocol and as previously described^7. Cells were seeded in 96-well plates, treated with drug for 72 hours and optical density (OD) was measured at 490 nm. Cell viability was also assessed by the trypan blue exclusion assay and by Annexin V and PI staining (Biovision; Mountainview, Calif.), as previously described^7. […] After 72 hours, cell proliferation and viability were measured by the MTS assay.

Series [2] concerns TEX cells. Put plainly: Reactive oxygen species detection (DCFH-DA, DHE, flow cytometry). An excerpt: Reactive oxygen species (ROS) were detected using 2′,7′dichlorohydrofluorescein-diacetate (DCFH-DA; Sigma Chemical) and dihyodroethidium (DHE; Sigma Chemical). DCFH-DA is hydrolyzed by intracellular esterase to produce a non-fluorescent DCFH product. It can then be oxidized by ROS to produce a highly fluorescent DCF product^14. DHE is a superoxide indicator which upon contact with superoxide anions produces the fluorescent product 2-hydroxyethidium^15. Following drug treatment, TEX cells (5×10^5) were collected and washed in PBS (Sigma-Aldrich). Cells were stained with 5 μM (final concentration) DCFH-DA or 10 μM DHE and allowed to incubate for 30 minutes in a humidified atmosphere containing 5% CO2 at 37° C. Samples were then washed in PBS and ROS was measured by flow cytometry using the Guava EasyCyte 8HT (Millipore). Data were analyzed with GuavaSoft 2.5 software (Millipore).

The test system of series [3] is TEX cells. As to the kind of experiment: Hypoxia experiments, sulforhodamine B assay. The protocol: (A) Jurkat T cells were cultured in 50 ng/ml of ethidium bromide, […] sodium pyruvate and 50 μg/ml uridine for 60 days to create Jurkat-EtBr cells which lack functional mitochondrial. To confirm that Jurkat-EtBr cells lack mitochondria, the mitochondria specific markers adenine nucleotide translocator (ANT) and complex I (ND1) were measured by Western blotting. (B) Avocatin B's activity was tested in cells with (JURK) and with reduced (JURK-EtBr) mitochondria. Viability was measured by the ANN/PI assay and flow cytometry and data are presented as mean percentage of live cells (i.e., ANN/PI^−)±SD from representative experiments. […] Cell viability was measured by the sulforhodamine B assay, as described in the methods, following a 72 hour incubation period. Data are presented as percent viable. (D) Uncoupling protein 2 (UCP2) was measured in whole cell lysates of avocatin B (10 μM) or DMSO-control treated TEX cells by Western blotting. Arbitrary units (AU) are presented as fold change (compared to the 6 hour time point) and were calculated by dividing each treatment lane by the densitometry of its loading control. Densitometry was calculated as outlined in the methods.
Cell growth and viability were measured by the sulforhodamine B assay (Sigma Chemical) as previously described^8 following 72 hours of incubation.

The test system of series [4] is fatty acid oxidation in TEX cells. Put plainly: Fatty acid oxidation, oxygen consumption rate (Seahorse XF24). The conditions noted are these: avocatin B 10 μM, etomoxir 100 μM, palmitate 175 μM. How it is done: Measurement of oxygen consumption rates were performed using a Seahorse XF24 extracellular flux analyzer (Seahorse Bioscience; North Billerica, Mass.). TEX cells were cultured in α-Minimum Essential Medium (Life Technologies) containing 1% FBS and plated at 1×10^5 cells/well in poly-L-Lysine (Sigma Chemical) coated XF24 plates. Cells were incubated with etomoxir (100 μM; Sigma Chemical) or vehicle control for 30 minutes at 37° C. in a humidified atmosphere containing 5% CO2. Next, palmitate (175 μM; Seahorse Bioscience) or avocatin B (10 μM) was added and immediately transferred to the XF24 analyzer. Oxidation of exogenous fatty acids was determined by measuring mitochondrial respiration through sequential injection of 5 μM (final concentration) oligomycin, an ATP synthase inhibitor, (Millipore, Billerica, Mass.), 5 μM CCCP, a hydrogen ion ionophore, (Sigma Chemical), and 5 μM rotenone (Millipore)/5 μM antimycin A, which inhibit complex III activity, (Sigma Chemical). Fatty acid oxidation was determined by the change in oxygen consumption following oligomycin and CCCP treatment and prior to antimycin and rotenone treatment, according to the manufacturer's protocol and as described in Abe et al. (2013)^13. Data were analyzed with XF software (Seahorse Bioscience).

In series [5] the test system is TEX cells. As to the kind of experiment: NADPH, NADH and GSH fluorimetric detection. Particulars: avocatin B 10 μM, etomoxir 100 μM; also in the presence of palmitate 175 μM. How it is done:
Nicotinamide adenine dinucleotide phosphate (NADPH), nicotinamide adenine dinucleotide (NAD) and glutathione (GSH) were measured by commercially available fluorimetric kits (e.g. Amplite™ Fluorimetric kit (AAT Bioquest; Sunnyvale, Calif.) according to the manufacturers' protocol and as previously described^16, following incubation of increasing duration with avocatin B (10 μM). For NAPDH studies, cells were also incubated with palmitate (175 μM) in the presence or absence of etomoxir. For NADH and GSH studies, cells were incubated in the presence of palmitate and N-acetylcysteine (NAC; 1 mmol/L), respectively. Data are presented as a percent NAD, NADPH or GSH compared to control treated cells±SD.

In series [6] the test system is TEX cells. As to the kind of experiment: ANN/PI viability of TEX cells with antioxidants or etomoxir. Particulars: 100 μM, 72 hours. How it is done: FIG. 6: Avocatin B inhibits fatty acid oxidation resulting in reduced NADPH and elevated ROS. (A) Illustration of fatty acid oxidation in mitochondria. Long chain fatty acids (LCFA) enter the mitochondria via CPT1 for fatty acid oxidation to yield acetyl-CoA. Acetyl-CoA enters the TCA cycle to generate NADPH, an enzymatic co-factor and antioxidant. (ME: malic enzyme; IDH: isocitrate dehydrogenase; α-KG: α-ketoglutarate). (B) Oxidation of exogenous fatty acids was assessed by measuring the oxygen consumption rate (OCR) in TEX cells treated with palmitate (175 μM), avocatin B (10 μM), avocatin B and palmitate or palmitate and etomoxir (100 μM). […] Effects on fatty acid oxidation were measured with the Seahorse Bioanalyzer, as detailed in the methods section, and (C) quantified by peak area after oligomycin and CCCP treatment, as described by the manufacturer's protocol and detailed in the methods. […] Viability was measured by the ANN/PI assay and data are presented as mean percentage of viable cells (i.e., ANN^−/PI^−)±SD from representative experiments. […] Data, percentage of NADH compared with vehicle control-treated cells±SD; (H) GSH was measured in TEX cells in the presence or absence of NAC using a commercially available fluorimetric assay following treatment with avocatin B ([…]), according to the manufacturers protocol. […]

[7] abbreviates: 72 hours, avocatin B 2 μM, antimycin A 1 μM, rotenone 3 μM, daunorubicin 5 nM, cytarabine 4 nM.

Consider `C=CCCCCCCCCCCCC(O)CC(O)CO` (stereo not shown) [avocadene], for which the “amount of cell death (PI positive) in TEX cells, rank among the lipids” value in the series with TEX cells [1] was “least amount of cell death”.
With `C#CCCCCCCCCCCCC(O)CC(O)COC(C)=O` (stereo not shown) [avocadyne acetate], the “cytotoxicity toward TEX cells” value with TEX leukemia cells was “induce cytotoxicity”. Moreover, the “ROS activity of avocatin analogues” value in the series on TEX cells [2] (Example 5, FIG. 12) was “induce ROS activity”; in the series with TEX cells [2] (Example 5, FIG. 12, listed as Avocadyne Acetate) it was “induce ROS production”.
Take `C#CCCCCCCCCCCCC(O)CC(O)CO` (stereo not shown) [avocadyne]: the “cytotoxicity toward TEX cells” value with TEX leukemia cells is listed as “induce cytotoxicity”. The “ROS activity of avocatin analogues” value in the series with TEX cells [2] (Example 5, FIG. 12) is given as “induce ROS activity”; with TEX cells [2] (Example 5, FIG. 12, listed as Avoadyne), “induce ROS production”. Moreover, in the series on TEX cells [1], the “amount of cell death (PI positive) in TEX cells, rank among the lipids” value was “greatest amount of cell death”.
Take `COc1cccc2c1C(=O)c1c(O)c3c(c(O)c1C2=O)C[C@@](O)(C(C)=O)C[C@@H]3O[C@H]1C[C@H](N)[C@H](O)[C@H](C)O1` [daunorubicin]: in the series on TEX cells [3] (setting [7]), the “activity in hypoxic (1% oxygen) versus normoxic (21% oxygen) conditions” value (from here on “activity in hypoxic … (21% oxygen) conditions”) is “unaffected”.
As for `CCOC(=O)[C@@]1(CCCCCCOc2ccc(Cl)cc2)CO1` [etomoxir], the “oxidation of exogenous palmitate (oxygen consumption rate)” value in series [4] is reported as “blocked”. Moreover, the “reduction in NADPH” value in the series with TEX cells [5] was about 50%. Moreover, the “effect of etomoxir on TEX viability” value in the series with TEX cells [6] is given as “does not impart toxicity”; in the series with TEX cells [6] (listed as Etomoxir) it was “did not reduce viability”.
Turning to `C=C(C)[C@H]1Cc2c(ccc3c2O[C@@H]2COc4cc(OC)c(OC)cc4[C@@H]2C3=O)O1` [rotenone], the “activity in hypoxic … (21% oxygen) conditions” value in the series with TEX cells [3] (setting [7]) is “reduced”.
As to antimycin, in the series on TEX cells [3] (setting [7]), the “activity in hypoxic … (21% oxygen) conditions” value is “reduced”.
For cytarabine, the “activity in hypoxic … (21% oxygen) conditions” value with TEX cells [3] is recorded as “unaffected”.
